Data as given in patent publication US20260115185A1, “QUINOLINE DERIVATIVES WHICH ACT AS KAPPA-OPIOID RECEPTOR ANTAGONISTS” (The Scripps Research Institute, priority 2023, published 2026).

How the values were obtained:
mu opioid receptor (MOR) = biological target: T1, mu opioid receptor (MOR) (Homo sapiens, UniProt P35372); experiment: OPRMu1 Discover X β-arrestin Assay, antagonist mode (U2OS cells, DAMGO EC80 challenge); format: cell-based
T1 construct: host or cells: U2OS (Discover X OPRMu1-U2OS, PathHunter)
Description: OPRMu1 Discover X—β-arrestin Assay—Antagonist Mode. […] This assay evaluates the OPRMu1 activation in membrane recruitment of β-arrestin. In addition, the assay evaluates GPCR-β-arrestin proximity using low affinity fragment complementation of beta-galactosidase (beta-gal). The assay employs U20S cells, which express OPRMu1 fused to the complementary beta-gal fragment (enzyme acceptor). As designed, compounds that act as antagonists will prevent receptor activation resulting in reduced well luminescence. Compounds were tested in quadruplicate using a 10-point, 1:3 dilution series starting at a nominal concentration of 10 micromolar.
The Discover X OPRMu1-U20S cell line was cultured in 150 mm dishes at 37° C., 5% CO2 and 95% relative humidity (RH).
On Day 1 of the assay, 5000 cells in 20 μL of assay buffer (Discover X's Cell Plating Reagent 5) were seeded into each well of a 384 Corning 3570 standard white plate, and incubated 16-24 hours at 37° C., 5% CO2 and 95% RH.
On Day 2, 100 nL of test compound in DMSO were added to the appropriate wells and the plates were then incubated for 30 min at 37° C. 5% CO2 and 95% RH. Next, 2.2 μL of DAMGO OPRMu1 agonist (commercially available) or DMSO in assay media. (The EC80 Challenge consists of 1.8 μL of 3.7 μM DAMGO, 0.4 μL of Assay Buffer, with a final assay concentration of 303 nM). After incubation for 3 hours at 37° C. 5% CO2, and 95% RH, 10 μL of Path Hunter Detection Mix was added to each well, and the plate was then incubated at room temperature in the dark for 1 hour. Well luminescence was measured on Perkin Elmer's Envision.
(§1) The Percent Inhibition was calculated from the median ratio as follows:
• DMEM Medium, (Invitrogen 11965) • F12 Medium, (Invitrogen 11765) • Heat Inactivated Fetal Bovine Serum, (Invitrogen 10082147) • Non Essential Amino Acids 100× (Invitrogen 11140-050) • HEPES (pH 7.3) 1M, (Invitrogen 15630-080) • Sodium Pyruvate 100× (Invitrogen 11360-070) • Penicillin Streptomycin, (Invitrogen 15640) • Trypsin 0.25% EDTA (Invitrogen 25200056) • DPBS without Calcium/Magnesium (Invitrogen 14190-136) • DMSO Dry (Sigma D2650) • DAMGO OPRMu1 Agonist MW513.19 (Sigma E7384-5MG) • B-Funaltrexamine Hydrochloride OPRM1 Antagonist MW (SIGMA 0003-2MG) • PathHunter Cell Plating 5 Reagent (Discover X 93-0563R5A) • Corning 3750 Standard 384 well white plate with lid.
PathHunter Detection Mix (DiscoverX 93-0001): 1 part Galacton Star/5 parts Emerald II/19 parts PH Cell Assay Buffer.

[1] = biological target: T2, kappa opioid receptor (KOR) (Homo sapiens, UniProt P41145); experiment: OPRKappa 1 Tango B-Arrestin Assay, antagonist mode (Tango OPRK1-bla U2OS cells, U50488 EC80 challenge); format: cell-based; settings: for Selectivity (MOR/KOR): Kappa selectivity, MOR IC50 / KOR IC50; for IC50: antagonist mode, Tango OPRK1-bla U2OS cells, 6 nM U50488 challenge
T2 construct: host or cells: U2OS (Tango OPRK1-bla U2OS)
Description: OPRKappa 1 Tango B-Arrestin Assay Protocol-Antagonist Mode. […] The assay uses Tango OPRK1-bla U2OS cells which express OPRK1 linked to a GAL4-VP16 transcription factor via a TEV protease site. The cells also express a β-arrestin/TEV protease fusion protein and a β-lactamase (BLA) reporter gene under the control of a UAS response element. Stimulation of the OPRK1 receptor by agonist causes migration of the β-arrestin fusion protein to the GPCR, and through proteolysis liberates GAL4-VP16 from the receptor. The liberated VP16-GAL4 migrates to the nucleus, where it induces transcription of the BLA gene. BLA expression is monitored by measuring fluorescence resonance energy transfer (FRET) of a cleavable, fluorogenic, cell-permeable BLA substrate. As designed, test compounds that are OPRK1 antagonists inhibit agonist activation and migration of the fusion protein, thus preventing proteolysis of GAL4-VP16 and BLA transcription, leading to no increase in well FRET. Compounds were tested in quadruplicate using a 10-point, 1:3 dilution series starting at a nominal concentration of 10 micromolar.
The Tango OPRK1-U20S Dividing cell line was routinely cultured in 150 mm dishes at 37C, 5% CO2 and 95% relative humidity (RH).
On Day 1 of the assay, 16,000 cells in 10 μL of assay media (DMEM-Glutamax—with Sodium Pyruvate, 10% fetal bovine serum stripped with charcoal-dextran (CDS), 25 mM HEPES, 0.1 mM non-essential amino acids, antibiotic mix (penicillin streptomycin)) were seeded into each well of a 384 Greiner 788092 black low profile, clear bottom, low volume plate, and incubated 16-24 hours at 37° C., 5% CO2 and 95% (RH).
On Day 2, 50 nL of test compound in DMSO was added to the appropriate wells and plates were incubated for 30 min at 37° C. 5% CO2 and 95% (RH). Next was added 0.65 μL of commercially available U50488 OPRK1 agonist or DMSO in assay media: this EC80 Challenge consists of 0.6 μL of 111 nM U50488 to yield a final assay concentration of 6 nM). After incubation for 4 hours at 37° C., 5% CO2 and 95% (RH), 2.5 μL of LiveBLazer™FRET B/G (CCF4-AM) Mix (Soln.'s A,B,C,&D) was added to each well and incubated at room temperature in the dark for 2 hours. Well fluorescence was measured on Perkin Elmer's Envision using an Excitation filter 409 nm, Emission filters at 460 nm and […], bottom read.
as §1
• Tango™OPRK1-bla U20S Cells (Invitrogen K1576) • McCoy's 5A Medium, (Invitrogen 16600-082) • Dialyzed Fetal Bovine Serum, (Invitrogen 26400-036) • Non Essential Amino Acids 100× (Invitrogen part 11140-050) • HEPES (pH 7.3) 1M, (Invitrogen 15630-080) • Sodium Pyruvate 100× (Invitrogen 11360-070) • Penicillin Streptomycin, (Invitrogen 15640) • Trypsin 0.25% EDTA (Invitrogen 25200056) • DPBS without Calcium/Magnesium (Invitrogen 14190-136) • DMEM, High Glucose, GlutaMAX (Invitrogen 10569-010) • Fetal Bovine Serum, Charcoal Stripped (Invitrogen 12676-011) • DMSO Dry (Sigma D2650) • U50488 OPRK1 Agonist MW410.29 (Tocris 67198-19-0) • GNTI dihydrochloride OPRK1 Antagonist MW571.5 (Tocris 1282) • Nor-Binaltorphimine dihydrochloridc MW770.75 (Tocris 0347)
LiveBLAzere™-FRET/BG Loading Mix: (Invitrogen K1030 (5 mg)), composed of Solutions A, B, C, and D: • Solution A (6 μL): LiveBLAzer™-FRET/BG Substrate (CCF4-AM) • Solution B (60 μL) • Solution C (904 μL) • Solution C (must add 250 μl of 1N NaOH to 45 mL of Solution C prior to use) • Solution D (30 μL) [Probinicid] (Sigma P8161) make 200 mM stock in NaOH—H2O.

T2 sequence (P41145 whole entry): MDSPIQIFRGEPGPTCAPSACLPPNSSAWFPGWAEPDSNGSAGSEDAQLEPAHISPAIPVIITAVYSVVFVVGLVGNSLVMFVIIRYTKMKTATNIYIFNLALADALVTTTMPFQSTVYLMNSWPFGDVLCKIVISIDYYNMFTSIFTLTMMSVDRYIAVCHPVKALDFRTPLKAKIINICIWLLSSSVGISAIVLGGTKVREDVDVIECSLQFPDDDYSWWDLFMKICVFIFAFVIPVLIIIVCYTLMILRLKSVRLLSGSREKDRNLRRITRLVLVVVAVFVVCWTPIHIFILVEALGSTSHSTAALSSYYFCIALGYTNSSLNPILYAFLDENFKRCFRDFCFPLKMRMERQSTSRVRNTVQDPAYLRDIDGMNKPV
T1 sequence (P35372 whole entry): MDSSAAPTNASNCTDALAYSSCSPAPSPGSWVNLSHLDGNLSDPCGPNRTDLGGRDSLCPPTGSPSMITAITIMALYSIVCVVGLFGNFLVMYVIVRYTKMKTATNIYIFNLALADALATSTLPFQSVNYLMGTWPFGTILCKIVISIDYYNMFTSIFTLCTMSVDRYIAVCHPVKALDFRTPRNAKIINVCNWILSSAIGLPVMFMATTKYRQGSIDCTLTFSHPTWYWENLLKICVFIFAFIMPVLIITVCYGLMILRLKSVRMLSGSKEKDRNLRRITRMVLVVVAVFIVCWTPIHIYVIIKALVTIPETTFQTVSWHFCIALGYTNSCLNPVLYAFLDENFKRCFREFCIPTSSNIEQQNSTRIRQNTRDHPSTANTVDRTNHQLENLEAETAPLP

Structure (SMILES) | IC50 (mu opioid receptor (MOR)) [nM] | IC50 [1] [nM] | Selectivity (MOR/KOR) [1]
CCc1cc(-c2cnn(CCO)c2)c2nc(N3CCNC[C@H]3C)c(-c3nc(C)no3)c(C)c2c1 [Compound 106] | > 1000 | ≥ 100 | ++ (between 10- and 100-fold selectivity)
CCc1cc(F)c2nc(N3CCN(C(=O)CN4CCCC4)C[C@H]3C)c(-c3nc(C)no3)c(C)c2c1 [Compound 47, (R)-1-(4-(6-ethyl-8-fluoro-4-methyl-3-(3-methyl-1,2,4-oxadiazol-5-yl)quinolin-2-yl)-3-methylpiperazin-1-yl)-2-(pyrrolidin-1-yl)ethan-1-one] | 100 to 1000 | 1 to 10 | +++ (between 100- to 1000-fold selective)
COc1cc(F)c2nc(N3CCN(CC4CCOCC4)C[C@H]3C)c(-c3nc(C)no3)c(C)c2c1 [Compound 37, (R)-5-(8-fluoro-6-methoxy-4-methyl-2-(2-methyl-4-((tetrahydro-2H-pyran-4-yl)methyl)piperazin-1-yl)quinolin-3-yl)-3-methyl-1,2,4-oxadiazole] | > 1000 | ≥ 100 | ++ (between 10- and 100-fold selectivity)
CCc1cc(F)c2nc(N3CCN(C(=O)[C@H](C)N(CC)CC)C[C@H]3C)c(-c3cc(C)no3)c(C)c2c1 [Compound 164] | > 1000 | 10 to 100 | +++ (between 100- to 1000-fold selective)
CCc1cc(F)c2nc(N3CCN(C(=O)[C@H](CO)N(C)C)C[C@H]3C)c(-c3nc(C)no3)c(C)c2c1 [Compound 162] | > 1000 | 1 to 10 | +++ (between 100- to 1000-fold selective)
CCc1cc(F)c2nc(N3CCN(C(=O)[C@@H]4CCCN4C)C[C@H]3C)c(-c3cc(C)no3)c(C)c2c1 [Compound 165] | > 1000 | 10 to 100 | +++ (between 100- to 1000-fold selective)
CCc1cc(F)c2nc(N3CCN(CC4CCOCC4)C[C@H]3C)c(-c3cc(C)no3)c(C)c2c1 [Compound 63, (R)-5-(6-ethyl-8-fluoro-4-methyl-2-(2-methyl-4-((tetrahydro-2H-pyran-4-yl)methyl)piperazin-1-yl)quinolin-3-yl)-3-methylisoxazole] | > 1000 | 10 to 100 | +++ (between 100- to 1000-fold selective)
CCc1cc(-c2ccn(C)n2)c2nc(N3CCN(C(=O)C4CCOCC4)C[C@H]3C)c(-c3ccn(C)n3)c(C)c2c1 [Compound 101] | > 1000 | > 1000 | –
CCc1cc(F)c2nc(N3CCN(C(=O)CCN(C)C)C[C@H]3C)c(-c3nc(C)no3)c(C)c2c1 [Compound 43] | > 1000 | 10 to 100 | ++ (between 10- and 100-fold selectivity)
CCc1cc(F)c2nc(N3CCN(/C(=N\C#N)NC4CCOCC4)C[C@H]3C)c(-c3nc(C)no3)c(C)c2c1 [Compound 56] | 100 to 1000 | 10 to 100 | ++ (between 10- and 100-fold selectivity)
CCc1cc(F)c2nc(N3CCN(C(=O)[C@@H]4CCCCN4C)C[C@H]3C)c(-c3nc(C)no3)c(C)c2c1 [Compound 188] | > 1000 | 10 to 100 | +++ (between 100- to 1000-fold selective)
CCc1cc(F)c2nc(N3CCN(C(=O)[C@@H](C(C)C)N4CCCC4)C[C@H]3C)c(-c3nc(C)no3)c(C)c2c1 [Compound 148] | > 1000 | 1 to 10 | +++ (between 100- to 1000-fold selective)

The next lines start with results.

IC50 (mu opioid receptor (MOR)) [nM] | IC50 [1] [nM] | Structure (SMILES) | Selectivity (MOR/KOR) [1]
> 1000 | 1 to 10 | CCc1cc(-c2ccn(C)n2)c2nc(N3CCC(NC4CC(F)(F)C4)CC3)c(-c3nc(C)no3)c(C)c2c1 [Compound 103] | +++ (between 100- to 1000-fold selective)
100 to 1000 | < 1 | CCc1cc(C#N)c2nc(N3CCC(N[C@H]4CCOC[C@@H]4F)CC3)c(-c3ccn(C)n3)c(C)c2c1 [Compound 77] | +++ (between 100- to 1000-fold selective)
> 1000 | 10 to 100 | CCc1cc(F)c2nc(N3CCN(C(=O)CN(C)C)C[C@H]3C)c(-c3ccn(C)n3)c(C)c2c1 [Compound 171] | +++ (between 100- to 1000-fold selective)
> 1000 | ≥ 100 | CCc1cc(F)c2nc(N3CCN(CC4CCOCC4)[C@H](C)C3)c(-c3nc(C)no3)c(C)c2c1 [Compound 39, (R)-5-(6-ethyl-8-fluoro-4-methyl-2-(3-methyl-4-((tetrahydro-2H-pyran-4-yl)methyl)piperazin-1-yl)quinolin-3-yl)-3-methyl-1,2,4-oxadiazole] | ++ (between 10- and 100-fold selectivity)
> 1000 | 10 to 100 | CCc1cc(F)c2nc(N3CC[C@@H](N[C@@H]4CCOC4)C[C@@H]3C)c(-c3cc(C)no3)c(C)c2c1 [Compound 138] | +++ (between 100- to 1000-fold selective)
> 1000 | < 1 | CCc1cc(F)c2nc(N3CC[C@@H](N[C@@H]4CCOC4)[C@@H](F)C3)c(-c3ccn(C)n3)c(C)c2c1 [Compound 192, (3S,4R)-1-(6-ethyl-8-fluoro-4-methyl-3-(1-methyl-1H-pyrazol-3-yl)quinolin-2-yl)-3-fluoro-N—((R)-tetrahydrofuran-3-yl)piperidin-4-amine] | ++++ (more than 1000-fold selectivity over MOR)
